Results: patent US8147892B2, “Kokumi flavour compounds and use” (Givaudan SA, priority 2005, dated 2012)
“Also recorded” adds a separate entry of the source.

What was measured:
[1] = test system: sensory panel; assay: Sensory triangle test in chicken broth (kokumi intensity, taste profile); conditions: for kokumi taste (found or not): tested as described in Example 1 (chicken broth), concentration not given; for Sensory descriptors / effect on mouthfulness and complexity of the taste profile / Kokumi intensity (0-5): chicken broth; for Sensory descriptors / Kokumi intensity (0-5): pH 6.5; for Kokumi intensity (0-5): scale 0 to 5 (5 most intensive), negative control 2
Protocol: (§1) Unless otherwise indicated, all sensory tests are triangle tests and are performed according to the guidelines in “Amtliche Sammlung von Untersuchungsverfahren nach §35 LMBG (Lebensmittel-und Bedarfsgegenständegesetz)”; L 00.90 7, Untersuchung von Lebensmitteln, Sensorische Prüfverfahren, Dreiecksprüfung (Übemahme der gleichnahmigen Deutschen Norm DIN ISO 4120, Ausgabe January 1995), as follows:
The sensory panel is trained to evaluate the taste of aqueous solutions (4 ml each) of the following standard taste compounds by using a triangle test as described in the literature (Wieser and Belitz, Z. Lebensm. Unters. Forsch., 1975, 159, 65-72): sucrose (40 mmol/L) for sweet taste; citric acid (5 mmol/L) for sour taste; NaCl (12 mmol/L salty taste; caffeine (2 mmol/L) for bitter taste; and monosodium glutamate (MSG; 6 mmol/L) for umami taste. For kokumi taste, a solution of glutathione (10 mmol/L) in diluted chicken broth concentrate (Goumet Bouillon Huhn, Maggi, Singen, Germany; 3 g/100 g bottled water (Evian®)) is prepared and compared to the taste of chicken broth with no glutathione added.
(§2) All sensory analyses are performed in a sensory panel room at 22-25° C. over three different sessions by a trained panel of 8 to 10 individuals.
(§3) For recording the taste profiles, samples are prepared as indicated in the examples below. Taste profiles of samples are determined in a triangle test in three different sessions. Panellists refrain from eating or drinking for at least 1 hour prior to the session. At the start of the session and before each trial, the subject rinsed with water and expectorated. The participants receive a set of two blanks and one taste sample. Liquid samples are swirled around in the mouth briefly and expectorated. Solid samples are chewed for 20 seconds and then expectorated. […] Each sample with additive is compared to two reference samples without additives. Kokumi intensity is rated from 0-5 according to a scale from 0 to 5 (with 5 most intensive). The additive is added to a consumable and the sample is homogenised. The samples are presented to the sensory panel directly after homogenisation. The sensory panel included 8 trained individuals with exception of example 2, here the panel consists of 10 trained individuals.
Chicken Broth is prepared by dilution of 3 g chicken broth concentrate (Gourmet Bouillon Huhn; Maggi, Singen, Germany) with 100 ml water (Evian). Additives are added as specified in table below.
The pH-value of all samples is adjusted to 6.5 using formic acid (0.1 moVL) or sodium hydroxide (0.1 mol/L).
For each sample, kokumi intensity is rated and panelists are asked to describe sensory characteristics.
Compounds of formula I as listed in the table below are tested in chicken broth (prepared as described in example 1) and compared to hGSH.

[2] = test system: sensory panel; assay: Sensory triangle test in ketchup; conditions: 2500 ppm; for Test results (sensory description vs reference): ketchup (Kraft)
Protocol: as §1, §2, §3
Glutathione (GSH) and homoglutathione (hGSH) are added to ketchup (Kraft) in a concentration of 2500 ppm.

[3] = test system: sensory panel; assay: Sensory triangle test in cream cheese; conditions: 1000 ppm
Excerpt: The sensory panel included 8 trained individuals with exception of example 2, here the panel consists of 10 trained individuals.
The mixture is stirred until homogeneous.

[4] = test system: sensory panel; assay: Sensory triangle test in tomato juice; conditions: for Test results (sensory description vs reference): listed as γ-Glu-Cys-β-Ala
Protocol: as §1, §2, §3
Glutathione and homoglutathione are added to tomato juice (Albi, Germany) in the concentrations indicated below.

C[C@H](N)C(=O)O [Ala] was tested. Which “kokumi taste (found or not)” value [1] did it give?
The value was “not to have a kokumi taste”.

Which “kokumi taste (found or not)” value [1] does the source give for NC(=O)C[C@H](N)C(=O)O [Asn] here?
Its value is “not to have a kokumi taste”.

N[C@@H](CC(=O)O)C(=O)O [Asp] was tested. Which “kokumi taste (found or not)” value [1] did it give?
The value was “not to have a kokumi taste”.

With N[C@@H](CSSC[C@H](N)C(=O)O)C(=O)O [Cys-S—S-Cys] as the compound, how does the “kokumi taste (found or not)” value [1] read?
The value was “not to have a kokumi taste”.

With N[C@@H](CS)C(=O)O [Cys] as the compound, how does the “kokumi taste (found or not)” value [1] read?
Its value is “not to have a kokumi taste”.

Which “Test results (sensory description vs reference)” value [2] does the source give for N[C@@H](CCC(=O)N[C@@H](CS)C(=O)NCC(=O)O)C(=O)O [GSH, Gamma-L-glutamyl-L-cysteinyl-glycine] here?
Its value is “the observed effect is lower”.

For NC(=O)CC[C@H](N)C(=O)O [Gln], which “kokumi taste (found or not)” value [1] is on record?
Its value is “not to have a kokumi taste”.

For N[C@@H](CCC(=O)O)C(=O)O [Glu], which “kokumi taste (found or not)” value [1] is on record?
The value was “not to have a kokumi taste”.

Which results are given for N[C@@H](CCC(=O)O)C(=O)[O-].[Na+] [MSG, mono sodium glutamate]?
Sensory descriptors ([1]; additive 10 mmol/L): higher umami (taste of MSG) intensity; also recorded: Increased umami taste; effect on mouthfulness and complexity of the taste profile ([1]; positive control 10 mmol/L): no effect on mouthfulness and complexity

[Cl-].[Na+] [NaCl] was tested. Which Sensory descriptors ([1]; additive 30 mmol/L) did it give?
The Sensory descriptors was “increased salt taste”.

What about the Sensory descriptors ([1]; additive 30 mmol/L, listed as NaCI) of the same compound?
The Sensory descriptors was “more salty than the negative control”.

And the “Kokumi intensity (0-5)” value ([1]; additive 30 mmol/L)?
Its value is 2.

And the “effect on mouthfulness and complexity of the taste profile” value ([1]; positive control 30 mmol/L)?
The value was “no effect on mouthfulness and complexity”.

N[C@@H](CCC(=O)N[C@@H](CS)C(=O)NCCC(=O)O)C(=O)O [hGSH, Gamma-L-glutamyl-L-cysteinyl-beta-alanine] was tested. Which Sensory descriptors ([1]; additive 10 mmol/L) did it give?
Its Sensory descriptors is “increases the mouthfulness, complexity, and long lasting taste sensation”.

What about the “Kokumi intensity (0-5)” value ([1]; additive 10 mmol/L) of the same compound?
Its value is 4.0.

What about the “Test results (sensory description vs reference)” value ([3]; cream cheese (Philadelphia, Kraft)) of the same compound?
Its value is “more mouthfulness, richness, and kokumi-like complexity”.

What about the “panelists finding the sample different from the reference sample and preferred” value ([3]; cream cheese) of the same compound?
Its value is 9 out of a panel of 10.

What about the “panelists preferring the sample” value ([4]; 250 ppm) of the same compound?
Its value is 7 out of 8 panelists.

What about the “Test results (sensory description vs reference)” value ([4]; 250 ppm) of the same compound?
The value was “more intensive and well-balanced kokumi taste”.

What about the “Test results (sensory description vs reference)” value ([4]; 5000 ppm) of the same compound?
Its value is “even more pronounced kokumi sensation compared to an isoconcentrated glutathione sample”.

And the “Test results (sensory description vs reference)” value [2]?
Its value is “more meaty, bouillon-like, and intensified overall taste”.

And the “panelists indicating more meaty, bouillon-like, and intensified overall taste” value ([2]; ketchup)?
Its value is 7 out of 8 panelists.

How did the “kokumi taste (found or not)” value [1] turn out when NCCC(=O)O [β-Ala] was run?
Its value is “not to have a kokumi taste”.
